The results in this text go back to article PMC10269664, “Cinnamaldehyde Targets the LytTR DNA-Binding Domain of the Response Regulator AgrA to Attenuate Biofilm Formation of Listeria monocytogenes” (Microbiology Spectrum, 2023).

For one data set, the target named is T1, AgrCFL (Listeria monocytogenes, UniProt Q8YAR5).
T1 construct: gene lmo0050
As to conditions: 10 μM ATP; 37 °C.

The target of a further data set is T2, AgrCCyto (Listeria monocytogenes, UniProt Q8YAR5).
T2 construct: gene lmo0050
As to conditions: 10 μM ATP; 37 °C.

Data set [1] deals with T3, AgrA (Listeria monocytogenes, UniProt Q8YAR4, G176A).
T3 construct: gene lmo0051
The experiment in a line: biochemical.

Data set [2] deals with T4, AgrA (Listeria monocytogenes, UniProt Q8YAR4, K177A).
T4 construct: gene lmo0051
The experiment in a line: biochemical.

The target of data set [3] is T5, AgrA (Listeria monocytogenes, UniProt Q8YAR4).
T5 construct: gene lmo0051; entire protein, 242 residues, pET-28a His-tag, E. coli BL21(DE3), fluorescently labelled for MST
In words: microscale thermophoresis. It is filed as binding. As to conditions: read-out: Mean Kd ± SD. The source says: microscale thermophoresis on AgrA
In general terms: MST reads how a fluorescent partner responds to local heating, with and without ligand.

Data set [4] deals with T6, AgrA (Listeria monocytogenes, UniProt Q8YAR4, D159A).
T6 construct: gene lmo0051
The experiment in a line: biochemical.

In data set [5] the target is T7, AgrA (Listeria monocytogenes, UniProt Q8YAR4, R179A).
T7 construct: gene lmo0051
The experiment in a line: biochemical.

The target of data set [6] is T8, AgrA (Listeria monocytogenes, UniProt Q8YAR4, N178A).
T8 construct: gene lmo0051
The experiment in a line: biochemical.

Data set [7] has as its target T9, AgrA (Listeria monocytogenes, UniProt Q8YAR4, D158A).
T9 construct: gene lmo0051
In words: biochemical.

In data set [8] the target is T10, AgrA (Listeria monocytogenes, UniProt Q8YAR4, H29A).
T10 construct: gene lmo0051
In words: biochemical.

Data set [9] deals with T11, AgrA N178A N178A (Listeria monocytogenes EGD-e) (UniProt Q8YAR4).
T11 sequence: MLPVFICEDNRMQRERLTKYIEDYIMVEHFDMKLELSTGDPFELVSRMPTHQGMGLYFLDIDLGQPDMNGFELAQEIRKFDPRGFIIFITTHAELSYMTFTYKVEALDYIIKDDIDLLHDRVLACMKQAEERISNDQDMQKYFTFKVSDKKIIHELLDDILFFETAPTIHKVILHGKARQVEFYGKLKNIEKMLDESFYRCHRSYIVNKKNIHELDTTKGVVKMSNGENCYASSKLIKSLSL
In words: EMSA. A general note: A gel shift assay detects complexes by their altered migration in electrophoresis.

Data set [10] concerns the target T12, AgrA (Listeria monocytogenes EGD-e) (UniProt Q8YAR4).
T12 sequence: T11 sequence with A178N
The experiment in a line: EMSA.

Positions count from the first letter of the chain named.

T5 sequence (Q8YAR4 entry or part of it): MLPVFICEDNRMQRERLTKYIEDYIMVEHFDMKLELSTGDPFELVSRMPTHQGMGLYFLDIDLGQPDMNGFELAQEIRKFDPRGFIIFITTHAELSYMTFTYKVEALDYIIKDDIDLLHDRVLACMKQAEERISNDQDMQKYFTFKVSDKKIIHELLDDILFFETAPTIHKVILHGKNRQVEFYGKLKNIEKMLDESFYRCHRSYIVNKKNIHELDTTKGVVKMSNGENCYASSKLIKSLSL
T1 sequence (Q8YAR5 entry or part of it): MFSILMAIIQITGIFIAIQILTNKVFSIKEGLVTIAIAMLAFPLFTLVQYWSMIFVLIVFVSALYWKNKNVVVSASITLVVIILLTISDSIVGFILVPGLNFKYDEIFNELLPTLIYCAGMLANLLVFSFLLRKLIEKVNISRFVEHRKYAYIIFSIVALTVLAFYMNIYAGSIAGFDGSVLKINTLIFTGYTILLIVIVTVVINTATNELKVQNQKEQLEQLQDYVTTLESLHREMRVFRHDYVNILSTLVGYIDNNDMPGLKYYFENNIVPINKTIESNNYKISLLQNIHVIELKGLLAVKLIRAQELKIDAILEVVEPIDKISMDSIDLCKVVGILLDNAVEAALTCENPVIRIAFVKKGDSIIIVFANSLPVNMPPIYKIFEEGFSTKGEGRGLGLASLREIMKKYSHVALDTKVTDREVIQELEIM
T2 sequence (Q8YAR5 entry or part of it): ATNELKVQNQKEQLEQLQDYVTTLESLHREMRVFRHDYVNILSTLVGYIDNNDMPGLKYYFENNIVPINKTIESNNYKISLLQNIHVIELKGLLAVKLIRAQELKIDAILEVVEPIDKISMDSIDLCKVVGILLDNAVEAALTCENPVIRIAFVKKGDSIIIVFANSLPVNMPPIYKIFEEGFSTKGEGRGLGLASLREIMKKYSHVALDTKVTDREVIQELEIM

In the case of `Nc1ncnc2c1ncn2[C@@H]1O[C@H](COP(=O)(O)OP(=O)(O)OP(=O)(O)O)[C@@H](O)[C@H]1O` [ATP], the “Kinase-Lumi chemiluminescence, residual ATP” value at AgrCFL is “AgrCFL was also subjected to the kinase assay, and similar results were observed”; at AgrCCyto, “After incubation, the remaining ATP was reduced with increasing concentrations of AgrCCyto”.

Take `O=CC=Cc1ccccc1` [cinnamaldehyde]: the Kd (in general, the constant that tells how readily two partners part at equilibrium) is 53.2 ± 1.52 µM on AgrA [1]; 58.3 ± 4.42 µM at AgrA [2]; 55.9 ± 2.38 µM on AgrA [3]; 59 ± 3.44 µM at AgrA [4]; 175 ± 17.8 µM on AgrA [5]; 138 ± 11.4 µM at AgrA [6]. Besides, the values for the Kd on AgrA [7] and at AgrA [8] were 62 ± 4.8 µM and 57.7 ± 6.47 µM, respectively.

Turning to “CTAATTCACCTCCACTAATATTTTACAACGAATTTACCCATAATAACCAAAAATGTAATGAAATGTCCGATTCTTGTCATGAACGACCAAAAAAGAGCAGAATTGCCGATTTTTTGGATACATTTCAGAATATTCGAACGTGTAAAAAGGACTGTATAATAGGCTTAAAAACCCATATTAATATTTTATTTAAGTGAGTTTATTCATAAAAAAAACCAACTGCAAAAGAATGTTCACAGTTGGCTTTTCCATTTTA (double strand) [agr promoter P2]”, the binding entry is “binds more weakly” in data set [9] and “binds” in data set [10].
